Reference: patent publication US10092537B2, “Use for PAI-1 inhibitor” (RENASCIENCE CO., LTD., priority 2013, dated 2018)

Tests used:
human PAI-1 [1] = biological target: T1, human PAI-1 (Homo sapiens, UniProt P05121); experiment: Measurement of PAI-1 inhibitory activity of compound group 1 (t-PA, S-2288 chromogenic substrate); settings: read-out: PAI-1 activity %
Description: Subsequently, human-derived tissue plasminogen activator (t-PA) (manufactured by American Diagnostica, Inc. (USA); the same applies hereinafter) adjusted to 0.35 pmol/μL was added thereto, and the mixture was further incubated at 37° C. for 15 minutes.

human PAI-1 [2] = biological target: T1, human PAI-1; experiment: Measurement of PAI-1 inhibitory activity of compound group 1 (t-PA, Spectrozyme t-PA chromogenic substrate); settings: read-out: PAI-1 activity %
Description: Subsequently, human-derived tissue plasminogen activator (t-PA) (manufactured by American Diagnostica, Inc. (USA); the same applies hereinafter) adjusted to 0.05 pmol/μL was added thereto, and the mixture was further incubated at 37° C. for 60 minutes. Then, 0.25 mM of Spectrozyme t-PA synthetic substrate (manufactured by American Diagnostica, Inc. (USA); the same applies hereinafter), which is a chromogenic substrate, was added. The final mixture contained 50 mM Tris-HCl (pH 8), 150 mM NaCl, 1% DMSO, 0.1% PEG-6000, 0.2 mM CHAPS, 5 nM PAI-1, 2 nM t-PA, 0.2 mM Spectrozyme t-PA synthetic substrate, and each compound (10 μM or 2.5 μM).
Free radical p-nitroaniline removed from the chromogenic substrate (Spectrozyme t-PA) by t-PA action was measured using a spectrophotometer at an absorbance of 405 nm at 20-minute intervals, for 120 minutes.

human PAI-1 [3] = biological target: T1, human PAI-1; experiment: Measurement of PAI-1 inhibitory activity of compound group 2 (t-PA, S-2288 chromogenic substrate); settings: PAI-1 activity of the system without compound after 30 minutes taken as 100%
Description: Subsequently, human-derived tissue plasminogen activator (t-PA) (manufactured by American Diagnostica, Inc. (USA); the same applies hereinafter) adjusted to 0.3 pmol/μL was added thereto, and the mixture was further incubated at 37° C. for 15 minutes.

human PAI-1 [4] = biological target: T1, human PAI-1; experiment: Measurement of PAI-1 inhibitory activity of compound group 3 (t-PA, S-2288 chromogenic substrate; Table 4); settings: compound concentration 20 μM
Description: Subsequently, tissue plasminogen activator (t-PA) (manufactured by American Diagnostica, Inc. (USA); the same applies hereinafter) adjusted to 0.3 pmol/μL was added thereto, and further incubated at 37° C. for 15 minutes.

T1 sequence (P05121 24-402): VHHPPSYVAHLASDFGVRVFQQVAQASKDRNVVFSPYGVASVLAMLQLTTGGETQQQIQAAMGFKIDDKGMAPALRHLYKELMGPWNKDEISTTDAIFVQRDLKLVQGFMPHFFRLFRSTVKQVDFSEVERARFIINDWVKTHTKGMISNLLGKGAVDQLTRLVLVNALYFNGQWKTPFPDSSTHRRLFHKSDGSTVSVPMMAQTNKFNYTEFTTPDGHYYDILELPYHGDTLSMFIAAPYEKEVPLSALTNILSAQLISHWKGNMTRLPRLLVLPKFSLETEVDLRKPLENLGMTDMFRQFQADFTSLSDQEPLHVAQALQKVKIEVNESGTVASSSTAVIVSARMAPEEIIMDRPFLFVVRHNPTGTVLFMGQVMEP

O=C(Cc1cccc(-c2ccoc2)c1)Nc1ccc(Cl)cc1C(=O)O [Example 3, 5-chloro-2-({[3-(furan-3-yl)phenyl]acetyl}amino)benzoic acid]
activity at 20 µM (human PAI-1 [1]): 63.7%
activity at 50 µM (human PAI-1 [1]): 19.6%

O=C(CCCNC(=O)c1cccc(-c2ccoc2)c1)Nc1ccc(Cl)cc1C(=O)O [Example 1, 5-chloro-2-{[4-({[3-(furan-3-yl)phenyl]carbonyl}amino)butanoyl]amino}benzoic acid]
activity at 20 µM (human PAI-1 [1]): 95.5%
activity at 50 µM (human PAI-1 [1]): 48.9%

O=C(O)c1cc(Cl)ccc1NC(=O)[C@@H]1CCCN1C(=O)Cc1cccc(-c2ccoc2)c1 [Example 9, 5-chloro-2-[(1-{[3-(furan-3-yl)phenyl]acetyl}-L-prolyl)amino]benzoic acid]
activity at 20 µM (human PAI-1 [1]): 98.1%
activity at 50 µM (human PAI-1 [1]): 53.2%

O=C(Nc1ccc(Cl)cc1C(=O)O)c1ccc(-c2ccccc2)cc1 [Known compound (2), 2-[(biphenyl-4-ylcarbonyl)amino]-5-chlorobenzoic acid, reference compound]
activity at 20 µM (human PAI-1 [1]): 41.8%
activity at 50 µM (human PAI-1 [1]): 8%
activity at 2.5 µM (human PAI-1 [2]): 70.7%
activity at 10 µM (human PAI-1 [2]): 0.2%

Cn1cc(C(=O)C(=O)Nc2ccc(Cl)cc2C(=O)O)c2cc(-c3ccoc3)ccc21 [Example 14, 5-chloro-2-({[5-(furan-3-yl)-1-methyl-1H-indol-3-yl](oxo)acetyl}amino)benzoic acid]
activity at 20 µM (human PAI-1 [1]): 22.1%
activity at 50 µM (human PAI-1 [1]): 12.9%
activity at 2.5 µM (human PAI-1 [2]): 87.4%
activity at 10 µM (human PAI-1 [2]): 4.3%

5-chloro-2-({[4-(pyrrolidin-1-yl)phenyl]carbonyl}amino)benzoic acid hydrochloride [Example 83]
PAI-1 activity % (human PAI-1 [3]; compound 20 μM): 99.8%
PAI-1 activity % (human PAI-1 [3]; compound 50 μM): 77.8%

CC(C)(C)c1ccc(C(=O)Nc2ccc(Cl)cc2C(=O)O)cc1 [Known compound (1), 2-{[(4-tert-butylphenyl)carbonyl]amino}-5-chlorobenzoic acid, reference compound]
activity at 20 µM (human PAI-1 [1]): 44%
activity at 50 µM (human PAI-1 [1]): 11%
activity at 2.5 µM (human PAI-1 [2]): 100%
activity at 10 µM (human PAI-1 [2]): 12.7%

O=C(O)c1cc(Cl)ccc1NC(=O)[C@@H]1CCCN1C(=O)c1cccc(-c2ccoc2)c1 [Example 10, 5-chloro-2-[(-{[3-(furan-3-yl)phenyl]carbonyl}-L-prolyl)amino]benzoic acid]
activity at 20 µM (human PAI-1 [1]): 73%
activity at 50 µM (human PAI-1 [1]): 38.3%

O=C(O)c1cc(Cl)ccc1NC(=O)c1ccccc1-c1ccccc1 [Example 6, 2-[(biphenyl-2-ylcarbonyl)amino]-5-chlorobenzoic acid]
activity at 20 µM (human PAI-1 [1]): 51.4%
activity at 50 µM (human PAI-1 [1]): 22.2%

O=C(Nc1ccc(CCC2CCCCC2)cc1C(=O)O)c1ccc(C2CCCCC2)cc1 [Example 93, 5-(2-cyclohexylethyl)-2-{[(4-cyclohexylphenyl)carbonyl]amino}benzoic acid]
activity at 2.5 µM (human PAI-1 [2]): 0%
activity at 10 µM (human PAI-1 [2]): 0%

O=C(CC(c1ccccc1)c1ccccc1)Nc1ccc(Cl)cc1C(=O)O [Example 41, 5-chloro-2-[(3,3-diphenylpropanoyl)amino]benzoic acid]
activity at 2.5 µM (human PAI-1 [2]): 72.4%
activity at 10 µM (human PAI-1 [2]): 12.9%

C#Cc1ccc(NC(=O)c2ccc(C3CCCCC3)cc2)c(C(=O)O)c1 [Example 95, 2-{[(4-cyclohexylphenyl)carbonyl]amino}-5-ethynylbenzoic acid]
activity at 2.5 µM (human PAI-1 [2]): 80.5%
activity at 10 µM (human PAI-1 [2]): 0.3%

Cc1sc(NC(=O)c2cccc(-c3ccoc3)c2)c(C(=O)O)c1-c1ccccc1 [Example 5, 2-({[3-(furan-3-yl)phenyl]carbonyl}amino)-5-methyl-4-phenylthiophene-3-carboxylic acid]
activity at 20 µM (human PAI-1 [1]): 14.7%
activity at 50 µM (human PAI-1 [1]): 6.1%
activity at 2.5 µM (human PAI-1 [2]): 46.4%
activity at 10 µM (human PAI-1 [2]): 0.3%

O=C(Cn1ccc2cc(-c3ccccc3)ccc21)Nc1ccc(Cl)cc1C(=O)O [Example 51, 5-chloro-2-{[(5-phenyl-1H-indol-1-yl)acetyl]amino}benzoic acid]
activity at 2.5 µM (human PAI-1 [2]): 37.8%
activity at 10 µM (human PAI-1 [2]): 1.7%

O=C(Nc1ccc(Cl)cc1C(=O)O)c1cc(C(F)(F)F)cc(C(F)(F)F)c1 [Example 43, 2-({[3,5-bis(trifluoro-methyl)phenyl)carbonyl}amino)-5-chlorobenzoic acid]
activity at 2.5 µM (human PAI-1 [2]): 98.4%
activity at 10 µM (human PAI-1 [2]): 14.1%

O=C(COc1cccc(-c2ccco2)c1)Nc1ccc(Cl)cc1C(=O)O [Example 53, 5-chloro-2-({[3-(furan-2-yl)phenoxy]acetyl}amino)benzoic acid]
activity at 2.5 µM (human PAI-1 [2]): 95.3%
activity at 10 µM (human PAI-1 [2]): 21.6%

O=C(Nc1ccc(Cl)cc1C(=O)O)c1ccc(-c2cccs2)cc1 [Example 7, 5-chloro-2-({[4-(thiophen-2-yl)phenyl]carbonyl}amino)benzoic acid]
activity at 20 µM (human PAI-1 [1]): 54.2%
activity at 50 µM (human PAI-1 [1]): 7.4%
activity at 2.5 µM (human PAI-1 [2]): 99.8%
activity at 10 µM (human PAI-1 [2]): 0.4%

O=C(O)c1cc(Cl)ccc1NC(=O)C1CCCN(C(=O)Cc2cccc(-c3ccoc3)c2)C1 (centres unmarked) [Example 12, 5-chloro-2-{[(1-{[3-(furan-3-yl)phenyl]acetyl}piperidin-3-yl)carbonyl]amino}benzoic acid]
activity at 20 µM (human PAI-1 [1]): 57.7%
activity at 50 µM (human PAI-1 [1]): 15.7%

O=C(O)c1cc(Cl)ccc1NC(=O)c1cccc2c1Cc1ccccc1-2 [Example 38, 5-chloro-2-[(9H-fluoren-1-ylcarbonyl)amino]benzoic acid]
activity at 2.5 µM (human PAI-1 [2]): 94.8%
activity at 10 µM (human PAI-1 [2]): 2.5%

O=C(COC(c1ccccc1)c1ccccc1)Nc1ccc(Cl)cc1C(=O)O [Example 76, 5-chloro-2-{[(diphenylmethoxy)acetyl]amino}benzoic acid]
activity at 2.5 µM (human PAI-1 [2]): 92.9%
activity at 10 µM (human PAI-1 [2]): 30.6%

CC(C)(Oc1cccc(-c2ccoc2)c1)C(=O)Nc1ccc(Cl)cc1C(=O)O [Example 44, 5-chloro-2-({2-[3-(furan-3-yl)phenoxy]-2-methylpropanoyl}amino)benzoic acid]
activity at 2.5 µM (human PAI-1 [2]): 97.8%
activity at 10 µM (human PAI-1 [2]): 20.4%

O=C(COc1cccc(-c2ccccc2)c1)Nc1ccc(Cl)cc1C(=O)O [Example 20, 2-{[(biphenyl-3-yloxy)acetyl]amino}-5-chlorobenzoic acid]
activity at 2.5 µM (human PAI-1 [2]): 55.7%
activity at 10 µM (human PAI-1 [2]): 1.9%

O=C(Nc1ccc(Cl)cc1C(=O)O)c1ccc(C#CC2CCCCC2)cc1 [Example 88, 5-chloro-2-({[4-(cyclohexylethynyl)phenyl]carbonyl}amino)benzoic acid]
activity at 2.5 µM (human PAI-1 [2]): 35.5%
activity at 10 µM (human PAI-1 [2]): 0.8%

O=C(Nc1ccc(Cl)cc1C(=O)O)c1cccc(C2=CCCCC2)c1 [Example 79, 5-chloro-2-({[3-(cyclohex-1-en-1-yl)phenyl]carbonyl}amino)benzoic acid]
activity at 2.5 µM (human PAI-1 [2]): 44.5%
activity at 10 µM (human PAI-1 [2]): 1.6%

Cc1sc(NC(=O)c2ccc(C3CCCCC3)cc2)c(C(=O)O)c1-c1ccccc1 [Example 74, 2-{[(4-cyclohexylphenyl)carbonyl]amino}-5-methyl-4-phenylthiophene-3-carboxylic acid]
activity at 2.5 µM (human PAI-1 [2]): 8.6%
activity at 10 µM (human PAI-1 [2]): 0.2%

O=C(COc1ccc(-c2ccccc2)cc1)Nc1ccc(Cl)cc1C(=O)O [Example 19, 2-{[(biphenyl-4-yloxy)acetyl]amino}-5-chlorobenzoic acid]
activity at 2.5 µM (human PAI-1 [2]): 72.4%
activity at 10 µM (human PAI-1 [2]): 2.5%

O=C(COc1cccc(-c2ccoc2)c1)Nc1ccc(-c2ccccc2)cc1C(=O)O [Example 22, 4-({[3-(furan-3-yl)phenoxy]acetyl}amino)biphenyl-3-carboxylic acid]
activity at 2.5 µM (human PAI-1 [2]): 29.9%
activity at 10 µM (human PAI-1 [2]): 0.4%

O=C(/C=C/c1ccc(-c2ccccc2)cc1)Nc1ccc(Cl)cc1C(=O)O [Example 78, 2-{[(2E)-3-(biphenyl-4-yl)prop-2-enoyl]amino}-5-chlorobenzoic acid]
activity at 2.5 µM (human PAI-1 [2]): 25.3%
activity at 10 µM (human PAI-1 [2]): 0.3%

O=C(Nc1ccc(Cl)cc1C(=O)O)c1cccc(C23CC4CC(CC(C4)C2)C3)c1 [Example 62, 2-({[3-(adamantan-1-yl)phenyl]carbonyl}amino)-5-chlorobenzoic acid]
activity at 2.5 µM (human PAI-1 [2]): 29.1%
activity at 10 µM (human PAI-1 [2]): 0.6%

Cc1ccc(-c2ccc(F)cc2)cc1NCC(=O)Nc1ccc(Cl)cc1C(=O)O [Example 72, 5-chloro-2-{[N-(4′-fluoro-4-methylbiphenyl-3-yl)glycyl]amino}benzoic acid]
activity at 2.5 µM (human PAI-1 [2]): 31.1%
activity at 10 µM (human PAI-1 [2]): 3.6%

5-chloro-2-({[4-(diphenylmethyl)piperazin-1-yl]carbonyl}amino)benzoic acid hydrochloride [Example 75]
PAI-1 activity % (human PAI-1 [3]; compound 20 μM): 91.3%
PAI-1 activity % (human PAI-1 [3]; compound 50 μM): 13.3%
PAI-1 activity % (human PAI-1 [4]): 46.1%

O=C(COc1cccc(C2=CCCCC2)c1)Nc1ccc(Cl)cc1C(=O)O [Example 25, 5-chloro-2-({[3-(cyclohex-1-en-1-yl)phenoxy]acetyl}amino)benzoic acid]
activity at 2.5 µM (human PAI-1 [2]): 85.8%
activity at 10 µM (human PAI-1 [2]): 0%

O=C(C#Cc1ccc(C23CC4CC(CC(C4)C2)C3)cc1)Nc1ccc(Cl)cc1C(=O)O [Example 94, 2-({3-[4-(adamantan-1-yl)phenyl]prop-2-ynoyl}amino)-5-chlorobenzoic acid]
activity at 2.5 µM (human PAI-1 [2]): 3.5%
activity at 10 µM (human PAI-1 [2]): 7.4%

O=C(/C=C/c1cccc(-c2ccccc2)c1)Nc1ccc(Cl)cc1C(=O)O [Example 89, 2-{[(2E)-3-(biphenyl-3-yl)prop-2-enoyl]amino}-5-chlorobenzoic acid]
activity at 2.5 µM (human PAI-1 [2]): 60.7%
activity at 10 µM (human PAI-1 [2]): 0.1%

Cc1ccc(C23CC4CC(CC(C(=O)Nc5ccc(Cl)cc5C(=O)O)(C4)C2)C3)cc1 [Example 86, 5-chloro-2-({[3-(4-methylphenyl)adamantan-1-yl]carbonyl}amino)benzoic acid]
activity at 2.5 µM (human PAI-1 [2]): 63.5%
activity at 10 µM (human PAI-1 [2]): 1.4%

O=C(Nc1ccc(Cl)cc1C(=O)O)c1ccc(-c2ccccc2)o1 [Example 105, 5-chloro-2-{[(5-phenylfuran-2-yl)carbonyl]amino}benzoic acid]
activity at 2.5 µM (human PAI-1 [2]): 89.9%
activity at 10 µM (human PAI-1 [2]): 23.5%
